# Test system: trypsin
# Assay: Digestion with trypsin (trypsin digestion of methadone prodrugs and release of methadone)
# Format: biochemical
# Description: FIG. 6 depicts an example of trypsin digestion of methadone prodrugs according to certain embodiments. All pro-drugs are digested fully within 8-24 h. The pro-drug with 1-methylethyl linker is slightly slower, requiring 24-48 h.
smiles,measurement,setting,value
"CC=C(OC(=O)N(C)C(C)CNC(=O)[C@H](CCCNC(=N)N)NC(=O)c1ccccc1)C(CC(C)N(C)C)(c1ccccc1)c1ccccc1 (stereo partly drawn) [pro-drug with 1-methylethyl linker, 6-(dimethylamino)-4,4-diphenylhept-2-en-3-yl (1-((S)-2-benzamido-5-guanidinopentanamido)propan-2-yl)(methyl)carbamate]",time until pro-drug is digested fully by trypsin,FIG. 6,24 to 48 h
same,release of methadone from the release intermediate after trypsin digestion,"FIG. 6 and FIGS. 7A-7D, result in words",rapid release to methadone

# Source: patent publication US12384744B2, “Enzyme-cleavable methadone prodrugs and methods of use thereof” (Ensysce Biosciences Inc., priority 2021, dated 2025)
